Measurements published in ChEMBL document CHEMBL2396526, “Chromenylchalcones showing cytotoxicity on human colon cancer cell lines and in silico docking with aurora kinases” (Bioorg Med Chem, 2013).
Calls of active or inactive are those of the source. The rule behind the calls is not given here.

Tests used:
[1] = species: Homo sapiens; experiment: Inhibition of human Rsk
[2] = biological target: Aurora kinase B (Homo sapiens) (UniProt Q96GD4); experiment: Inhibition of human aurora-B; conditions: concentration not given here
Sequence of Aurora kinase B (Homo sapiens) (Q96GD4 whole entry): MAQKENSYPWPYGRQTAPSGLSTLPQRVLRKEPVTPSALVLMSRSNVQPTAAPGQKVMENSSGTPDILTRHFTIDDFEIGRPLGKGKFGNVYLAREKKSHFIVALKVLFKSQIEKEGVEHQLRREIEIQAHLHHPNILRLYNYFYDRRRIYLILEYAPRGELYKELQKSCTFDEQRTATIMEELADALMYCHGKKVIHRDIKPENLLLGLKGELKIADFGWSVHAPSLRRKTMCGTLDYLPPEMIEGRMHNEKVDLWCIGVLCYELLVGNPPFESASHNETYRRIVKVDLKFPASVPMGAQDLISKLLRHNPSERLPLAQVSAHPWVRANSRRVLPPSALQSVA

[3] = biological target: T1, Aurora kinase A (Homo sapiens) (UniProt O14965); experiment: Inhibition of human aurora-A; conditions: concentration not given here
T1 sequence (whole entry): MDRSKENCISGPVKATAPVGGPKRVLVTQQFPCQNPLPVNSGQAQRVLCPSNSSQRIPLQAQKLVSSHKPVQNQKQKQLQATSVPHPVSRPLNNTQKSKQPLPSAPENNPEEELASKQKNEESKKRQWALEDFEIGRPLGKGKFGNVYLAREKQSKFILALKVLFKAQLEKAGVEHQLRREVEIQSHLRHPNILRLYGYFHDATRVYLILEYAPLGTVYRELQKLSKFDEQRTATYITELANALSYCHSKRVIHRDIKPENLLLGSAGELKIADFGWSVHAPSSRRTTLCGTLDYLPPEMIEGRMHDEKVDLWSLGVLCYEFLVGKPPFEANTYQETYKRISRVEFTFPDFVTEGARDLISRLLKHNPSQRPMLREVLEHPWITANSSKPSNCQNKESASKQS

[4] = test system: HCT-116; experiment: Cell cycle arrest in human HCT116 cells assessed as accumulation at G2/M phase at 20 uM after 24 hrs by propidium iodide staining-based flow cytometric analysis (reference value: 2.9%); type: functional
[5] = test system: HCT-116; experiment: Cell cycle arrest in human HCT116 cells assessed as accumulation at G2/M phase at 20 uM after 12 hrs by propidium iodide staining-based flow cytometric analysis (reference value: 20.8%); type: functional
[6] = test system: HCT-116; experiment: Induction of apoptosis in human HCT116 cells assessed as PARP cleavage at 20 uM after 24 to 48 hrs by Western blot analysis; type: functional, cell-based
[7] = biological target: Epidermal growth factor receptor (Homo sapiens) (UniProt P00533); experiment: Inhibition of human EGFR
Sequence of Epidermal growth factor receptor (Homo sapiens) (P00533 whole entry, the tested form may be a part): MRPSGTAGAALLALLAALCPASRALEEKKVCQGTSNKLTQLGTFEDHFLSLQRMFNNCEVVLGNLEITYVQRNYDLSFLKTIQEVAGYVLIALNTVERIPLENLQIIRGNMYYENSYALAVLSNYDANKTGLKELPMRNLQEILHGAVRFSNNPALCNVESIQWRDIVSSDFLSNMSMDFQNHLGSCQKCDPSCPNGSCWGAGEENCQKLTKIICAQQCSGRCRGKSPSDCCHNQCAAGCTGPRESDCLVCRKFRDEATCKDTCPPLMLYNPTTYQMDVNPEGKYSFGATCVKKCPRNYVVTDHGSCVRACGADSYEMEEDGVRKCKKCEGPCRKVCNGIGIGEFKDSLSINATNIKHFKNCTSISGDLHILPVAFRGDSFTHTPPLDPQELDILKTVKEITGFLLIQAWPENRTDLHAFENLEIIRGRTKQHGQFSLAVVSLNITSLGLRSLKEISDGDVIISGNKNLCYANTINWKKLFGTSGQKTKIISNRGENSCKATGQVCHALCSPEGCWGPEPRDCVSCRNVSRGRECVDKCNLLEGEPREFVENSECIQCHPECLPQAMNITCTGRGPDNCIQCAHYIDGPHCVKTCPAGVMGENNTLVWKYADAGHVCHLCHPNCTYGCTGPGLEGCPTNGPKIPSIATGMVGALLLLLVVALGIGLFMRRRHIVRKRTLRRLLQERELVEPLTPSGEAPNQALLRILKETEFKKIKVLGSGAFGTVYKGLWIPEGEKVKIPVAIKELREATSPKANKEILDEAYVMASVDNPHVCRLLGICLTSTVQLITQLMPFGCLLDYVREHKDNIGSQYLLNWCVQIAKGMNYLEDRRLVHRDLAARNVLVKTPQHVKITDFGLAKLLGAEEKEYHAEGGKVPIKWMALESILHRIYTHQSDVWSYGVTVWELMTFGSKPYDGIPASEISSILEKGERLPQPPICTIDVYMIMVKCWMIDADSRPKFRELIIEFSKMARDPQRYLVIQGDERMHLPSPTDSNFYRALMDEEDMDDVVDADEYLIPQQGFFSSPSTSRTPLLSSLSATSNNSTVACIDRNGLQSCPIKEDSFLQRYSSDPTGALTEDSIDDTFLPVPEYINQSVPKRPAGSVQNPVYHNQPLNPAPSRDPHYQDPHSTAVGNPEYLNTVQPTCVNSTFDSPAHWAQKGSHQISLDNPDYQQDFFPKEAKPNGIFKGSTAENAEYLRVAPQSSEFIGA

[8] = test system: HCT-116; experiment: Induction of apoptosis in human HCT116 cells assessed as appearance of cleaved caspase-7 at fragmented chromosomes at 20 uM after 24 hrs by Hoechst 33258 staining-based fluorescence microscopic analysis; type: functional, cell-based
[9] = biological target: Tyrosine-protein kinase Lck (Homo sapiens) (UniProt P06239); experiment: Inhibition of human LCK
Sequence of Tyrosine-protein kinase Lck (Homo sapiens) (P06239 2-509 limits assumed): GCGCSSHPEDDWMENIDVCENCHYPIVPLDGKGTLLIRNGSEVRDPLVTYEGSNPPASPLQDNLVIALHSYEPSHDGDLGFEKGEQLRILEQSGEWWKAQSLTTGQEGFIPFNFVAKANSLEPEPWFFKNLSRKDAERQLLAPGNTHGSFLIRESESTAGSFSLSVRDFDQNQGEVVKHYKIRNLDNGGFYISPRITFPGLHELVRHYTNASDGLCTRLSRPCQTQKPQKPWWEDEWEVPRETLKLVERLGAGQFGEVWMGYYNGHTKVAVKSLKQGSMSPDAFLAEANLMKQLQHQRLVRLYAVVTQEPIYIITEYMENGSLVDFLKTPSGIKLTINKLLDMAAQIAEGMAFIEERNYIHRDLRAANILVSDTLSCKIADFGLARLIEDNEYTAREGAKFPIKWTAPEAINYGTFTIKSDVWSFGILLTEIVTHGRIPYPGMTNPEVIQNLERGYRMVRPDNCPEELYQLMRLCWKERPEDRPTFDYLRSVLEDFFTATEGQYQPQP

[10] = biological target: T2, Serine/threonine-protein kinase Chk1 (Homo sapiens) (UniProt O14757); experiment: Inhibition of human CHK1
T2 sequence (whole entry): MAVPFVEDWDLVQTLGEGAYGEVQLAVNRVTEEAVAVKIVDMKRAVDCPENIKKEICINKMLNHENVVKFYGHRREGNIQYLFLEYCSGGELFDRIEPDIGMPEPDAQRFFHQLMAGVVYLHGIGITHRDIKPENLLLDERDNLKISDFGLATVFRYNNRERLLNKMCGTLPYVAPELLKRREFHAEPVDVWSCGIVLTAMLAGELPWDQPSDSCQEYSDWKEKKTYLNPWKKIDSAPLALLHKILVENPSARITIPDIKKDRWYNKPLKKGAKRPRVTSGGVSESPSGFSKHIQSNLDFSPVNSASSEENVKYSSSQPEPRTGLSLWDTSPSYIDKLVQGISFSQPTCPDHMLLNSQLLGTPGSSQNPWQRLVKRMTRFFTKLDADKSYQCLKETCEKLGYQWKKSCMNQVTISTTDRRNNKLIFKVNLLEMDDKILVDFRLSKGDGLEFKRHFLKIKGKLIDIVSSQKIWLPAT

[11] = test system: HCT-116; experiment: Induction of apoptosis in human HCT116 cells assessed as DNA content at sub-G1 phase at 20 uM after 24 hrs by annexin V-FITC/propidium iodide staining-based flow cytometric analysis (reference value: 92%); type: functional
[12] = biological target: T3, Ephrin type-B receptor 3 (Homo sapiens) (UniProt P54753); experiment: Inhibition of human EphB
T3 sequence (whole entry): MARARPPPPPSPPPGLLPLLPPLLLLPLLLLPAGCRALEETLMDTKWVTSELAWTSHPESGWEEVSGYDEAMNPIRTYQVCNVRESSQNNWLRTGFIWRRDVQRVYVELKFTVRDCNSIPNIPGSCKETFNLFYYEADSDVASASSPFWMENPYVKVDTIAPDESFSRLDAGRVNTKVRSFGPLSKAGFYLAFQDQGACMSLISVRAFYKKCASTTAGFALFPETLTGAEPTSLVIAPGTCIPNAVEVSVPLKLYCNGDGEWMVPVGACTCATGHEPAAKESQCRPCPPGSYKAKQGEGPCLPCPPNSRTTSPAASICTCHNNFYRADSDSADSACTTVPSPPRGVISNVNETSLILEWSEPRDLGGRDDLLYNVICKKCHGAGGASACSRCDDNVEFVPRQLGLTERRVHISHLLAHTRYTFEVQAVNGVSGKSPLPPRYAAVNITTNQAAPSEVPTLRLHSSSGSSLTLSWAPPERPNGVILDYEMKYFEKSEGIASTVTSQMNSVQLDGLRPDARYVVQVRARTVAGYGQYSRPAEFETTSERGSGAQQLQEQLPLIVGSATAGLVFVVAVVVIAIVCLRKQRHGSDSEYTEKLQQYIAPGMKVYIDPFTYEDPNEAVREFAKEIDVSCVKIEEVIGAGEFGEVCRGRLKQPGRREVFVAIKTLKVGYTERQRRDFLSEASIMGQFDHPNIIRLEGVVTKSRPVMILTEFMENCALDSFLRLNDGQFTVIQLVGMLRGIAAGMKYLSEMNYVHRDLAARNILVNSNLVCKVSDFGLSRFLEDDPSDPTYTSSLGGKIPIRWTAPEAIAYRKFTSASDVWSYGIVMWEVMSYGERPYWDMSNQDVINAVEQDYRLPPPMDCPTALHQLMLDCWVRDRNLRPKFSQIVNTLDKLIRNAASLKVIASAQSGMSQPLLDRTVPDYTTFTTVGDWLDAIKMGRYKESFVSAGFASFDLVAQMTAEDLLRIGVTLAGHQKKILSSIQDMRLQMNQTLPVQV

[13] = test system: HCT-116; experiment: Cell cycle arrest in human HCT116 cells assessed as accumulation at sub-G1 phase at 20 uM by propidium iodide staining-based flow cytometric analysis; type: functional; conditions: TDE = time-dependent effect
[14] = biological target: RAF proto-oncogene serine/threonine-protein kinase (Homo sapiens) (UniProt P04049); experiment: Inhibition of human c-RAF
Sequence of RAF proto-oncogene serine/threonine-protein kinase (Homo sapiens) (P04049 whole entry): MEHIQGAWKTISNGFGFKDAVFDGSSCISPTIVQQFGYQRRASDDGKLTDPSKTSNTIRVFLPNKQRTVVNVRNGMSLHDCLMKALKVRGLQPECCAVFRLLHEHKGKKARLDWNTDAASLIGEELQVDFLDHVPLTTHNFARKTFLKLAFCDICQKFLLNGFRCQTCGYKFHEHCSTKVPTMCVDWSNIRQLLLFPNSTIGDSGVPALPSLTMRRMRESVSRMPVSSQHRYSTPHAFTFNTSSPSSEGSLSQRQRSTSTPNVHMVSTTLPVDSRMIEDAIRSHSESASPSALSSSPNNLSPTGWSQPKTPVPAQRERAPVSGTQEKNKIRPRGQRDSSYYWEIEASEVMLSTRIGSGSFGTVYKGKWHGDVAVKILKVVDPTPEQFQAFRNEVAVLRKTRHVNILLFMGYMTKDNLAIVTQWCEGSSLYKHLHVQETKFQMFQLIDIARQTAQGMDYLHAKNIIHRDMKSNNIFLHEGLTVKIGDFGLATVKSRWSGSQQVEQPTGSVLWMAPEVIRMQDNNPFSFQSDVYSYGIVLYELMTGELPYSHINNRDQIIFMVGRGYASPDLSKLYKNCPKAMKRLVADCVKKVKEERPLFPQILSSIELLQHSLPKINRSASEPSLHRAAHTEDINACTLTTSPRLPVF

COc1ccc2c(c1)C=C(C(=O)/C=C/c1c(OC)cc(OC)cc1OC)CO2 was tested, and the inhibition [1] was “inactive”, the inhibition [2] was 65% and the inhibition [3] was 69%. For the same compound, the Activity [4] was 21.5%, the Activity [5] was 44.2% and the Activity [6] was “Active”. The inhibition [7] was “inactive”, the Activity [8] was “Active” and the inhibition [9] was “inactive”. For the same compound, the inhibition [10] was “inactive”, the Activity [11] was 1% and the inhibition [12] was “inactive”. For the same compound, the Activity [13] was “tde” and the inhibition [14] was “inactive”.
